Reference: patent US20250034498A1, “MICROFLUIDIC DEVICES” (Ecole Polytechnique Federale de Lausanne, priority 2021, published 2025)
Entries after “also recorded” stand apart in the source; their conditions may differ.

Test system: neural tube organoids
Assay: dorsal-ventral patterning of neural tube organoids at the gradient window of the microfluidic device
Type: cell-based
Conditions: for identity of neural tube organoid (PAX3/7 dorsal marker, OLIG2 ventral marker): D6 organoids exposed 18 hours; for spatial patterning of neural tube organoid (PAX3/7 dorsal marker, OLIG2 ventral marker): anti-parallel gradient 1.6 nM BMP4 (L)-500 nM SAG (R), 18 hours
Description: In the present example, the organoid of interest was cultured in a Matrigel™ drop for six days then harvested, and the organoid was suspended in Matrigel™ and loaded into the culture chamber 130 and placed at the gradient window 150 via the loading channel 170. A small drop of N2B27 medium was placed in each of the first and second medium chambers or reservoirs 110, 120 for humidification, and the chip was incubated in a 5% CO2 and 37° C. incubator for 5 minutes to allow the Matrigel™ to polymerise. After incubation, the first and second chambers 110, 120 were filled with N2B27 medium supplemented with 1.6 nM of BMP4 as a dorsal morphogen and 500 nM of SAG as a ventral morphogen respectively, and residual air in the device was removed from the first and second air outlets 140-1, 140-2 to allow the morphogen-supplemented media to diffuse across the gradient window 150. The device containing the organoid was incubated in a 5% CO2 and 37° C. incubator for 18 hours.
A neural tube organoid was placed in the gradient window of the device where a dorsal-ventral morphogen gradient has developed, using BMP4 as a dorsal morphogen and SAG as a ventral morphogen. PAX3/7 was used as a marker for dorsal fate neural tube cell and OLIG2 was used as a marker for ventral fate neural tube cell.
As described above, the neural tube organoids from D6 were introduced in the microfluidic device and exposed to different morphogen gradients for 18 hours. All scale bars are 100 μm.

Molecule	identity of neural tube organoid (PAX3/7 dorsal marker, OLIG2 ventral marker) (N2B27 (L)-500 nM SAG (R))	spatial patterning of neural tube organoid (PAX3/7 dorsal marker, OLIG2 ventral marker)	identity of neural tube organoid (PAX3/7 dorsal marker, OLIG2 ventral marker) (1.6 nM BMP4 (L)-N2B27 (R))
CNC1CCC(N(Cc2cccc(-c3ccncc3)c2)C(=O)c2sc3ccccc3c2Cl)CC1 (stereo not shown) [SAG]	dominant ventral identity expressing OLIG2	OLIG2 positive cells were biased towards the SAG source; also recorded: OLIG2 biased to right side	–
Bone Morphogenetic Protein 4 (protein, UniProt P12644 293-408, looked up, dorsalizing morphogen) Bone morphogenetic protein 4: SPKHHSQRARKKNKNCRRHSLYVDFSDVGWNDWIVAPPGYQAFYCHGDCPFPLADHLNSTNHAIVQTLVNSVNSSIPKACCVPTELSAISMLYLDEYDKVVLKNYQEMVVEGCGCR	–	PAX3/7 positive cells were biased towards the BMP4 source; also recorded: PAX3/7 biased to the left side	dorsal identity expressing PAX3/7
